Measurements reported in patent publication US20240190920A1, “BECLIN 1-TARGETED STAPLED PEPTIDE AND PHARMACEUTICAL COMPOSITION” (Shenzhen Research Institute of the Hong Kong Polytechnic …, priority 2021, published 2024).
Entries after “also recorded” stand apart in the source; their conditions may differ. Bridge positions count the residues as written; N and C are the ends. Square brackets hold non-standard residues; d marks the D form. Peptide text beside a SMILES is read from it. R8 = C=CCCCCCC[C@@](C)(N)C(=O)O; S5 = C=CCCC[C@](C)(N)C(=O)O

What was measured:
HEK293T cells [1] = test: Western blot of autophagy markers LC3 and p62; type: cell-based
Protocol: FIG. 8 is a schematic diagram showing that the peptides based on the i7-01s scaffold are effective inducers of autophagy. (a) Western blot to assess the p62 level and LC3 lipidation profile in HEK293T cells after treatment with 10- and 20-μM i7-01s-31 for 3 hours, in the presence or absence of CQ. (b)&(c) Quantification of LC3 lipidation profiles from the Western blot data. (d)&(e) Quantification of p62 levels from the Western blot data from (a).
The impact of these two peptides on cellular autophagic activity is examined by detecting the protein levels of LC3 and p62, two molecular markers of autophagy. During the autophagy process, cytosolic protein LC3 is converted from its apo form (LC3-I) to lipidated form (LC3-II) for accumulation on autophagosomes. Thus, an increase in LC3-II level is regarded as a reliable indicator of elevated cellular autophagic activity. Similarly, p62 is an autophagy receptor that is degraded in the lysosome together with autophagic substrates. A decrease in p62 level is also commonly used as an indicator for higher autophagic activity, although some studies have shown that p62 is not as sensitive as LC3-II.
(§1) Whole cell lysates are extracted using Laemmli sample buffer (62.5 mM Tris-HCl, pH 6.8, 2% SDS, 25% glycerol, 5% β-mercaptoethanol) supplemented with EDTA-free protease inhibitor cocktail (Roche). Protein concentration is determined using a standard Bradford assay before immunoblotting. Protein samples are separated by SDS-PAGE, transferred to a PVDF membrane (Millipore, USA), and incubated with the primary antibodies and HRP-conjugated secondary antibodies. Protein bands are visualized using ECL reagents. β-actin is used as the internal reference protein to control the loading amount of SDS-PAGE.

SKBR3 cells [2] = test: Trypan blue exclusion assay, IC50 in SKBR3 cells; type: cell-based; details: SKBR3, 24h
Protocol: (§2) (a) Trypan blue exclusion assay to assess the cytotoxicity IC50 (half maximal inhibitory concentration) of the indicated peptides in SKBR3 cells. Cells are treated with various concentrations of the indicated peptides for 24h. Cell numbers are manually counted by the trypan blue exclusion assay using a hemocytometer. Data are presented as mean±SD from three independent experiments. (b-d) Cell proliferation assay is performed over a time span of five days in SKBR3 cells after treatment with the indicated peptides. Cells are treated with the indicated peptides at day 0 and the cell number is calculated at the given time points. The assay is performed in 96 well plates with three independent measurements. Tat-SC4 is a control peptide with scrambled Tat-SP4 sequence but without the hydrocarbon staple.
Cell viability is measured by trypan blue exclusion assay following the standard protocol provided by the manufacturer. SKBR3 cells are seeded on 96-well plates containing complete medium at a density of 1×10^4 cells per well. […] Afterwards, the number of trypan blue positive staining cells and the number of total cells are manually counted under a light microscope (Olympus). Cell viability is calculated as the number of viable cells divided by the total number of cells. All experiments are repeated in triplicate and the mean is calculated.

SKBR3 cells [3] = test: Flow cytometry with Annexin V FITC-PI staining; type: cell-based
Protocol: FIG. 12 is a schematic diagram of the result showing the peptides based on strategy (i7-01s) scaffold induce cell death with necrotic features. Flow cytometry analysis with Annexin V FITC-PI staining is performed in SKBR3 cells after treatment of the indicated peptides for 24 hours.
The degree of cellular apoptosis and necrosis is assessed by flow cytometry following the standard protocol provided by the manufacturer. Briefly, SKBR3 cells after the indicated peptide treatment are harvested by trypsin, labelled with Annexin V and PI (Invitrogen), subjected to flow cytometer system (BD Accuri C6), and analyzed by BD Accuri C6 software. The cell populations can be distinguished by the staining of Annexin V/PI. Typically, cellular population in the lower left quadrant is live cells (Annexin V^−, PI^−), the lower right quadrant represents early apoptotic cells (Annexin V^+, PI^−), the upper right quadrant represents late apoptotic cells (Annexin V^+, PI^+), the upper left quadrant represents necrotic cells (Annexin V^−, PI^+).

HEK293T cells [4] = test: Trypan blue exclusion cytotoxicity assay in HEK293T cells; type: cell-based
Protocol: FIG. 7 is a schematic diagram of the result of evaluating the cytotoxicity of the newly designed stapled peptide on HEK293T cells by the trypan blue exclusion assay.
Cell viability is measured by trypan blue exclusion assay following the standard protocol provided by the manufacturer. SKBR3 cells are seeded on 96-well plates containing complete medium at a density of 1×10^4 cells per well. Upon cell attachment, cells are treated with the indicated stapled peptide or vehicle control for 24 hours. Afterwards, the number of trypan blue positive staining cells and the number of total cells are manually counted under a light microscope (Olympus). Cell viability is calculated as the number of viable cells divided by the total number of cells. All experiments are repeated in triplicate and the mean is calculated.

HER2 = test: EGF-induced endolysosomal degradation of HER2, Western blot; type: cell-based; details: SKBR3, 2 μM
Protocol: (§3) FIG. 9 is a schematic diagram of the result showing peptides based on (I7-01s) scaffold are potent inducers of endolysosomal trafficking. (a-c) Western blot to assess the HER2 and EGFR levels in SKBR3 cells. Cells are starved overnight and are treated with 200 ng/ml EGF respectively with vehicle control (a), 2 μM Tat-SP4 (b), 2 μM i7-01s-31 (c). (d & e) Time-dependent plots to quantify HER2 and EGFR degradation profiles after three independent experiments. The levels of HER2 (d) and EGFR (e) are normalized to the β-actin level at different time points and then further normalized to time 0, when the ligand EGF is added. Data are presented as mean±SEM (n=3).
In some embodiments, the Beclin 1-targeting stapled peptide provided by the present disclosure can effectively promote endolysosomal trafficking. As a scaffolding member of the PI3KC3 complex, Beclin 1 is essential for multiple PI3KC3-dependent processes including autophagy, endolysosomal trafficking and phagocytosis. To assess the efficacy of the newly designed peptides on the endolysosomal trafficking process, the ligand-induced endolysosomal degradation of cell surface receptors HER2 and EGFR is characterized by western blotting using SKBR3 breast cancer cell line that over-expresses both EGFR and HER2. […] In contrast, i7-01s-31 treatment at 2 μM results in significant reduction of HER2 level, with about 50% decrease at 15 hours post EGF stimulation, and about 70% decrease at 24 hours (as shown in FIGS. 9c & 9d). i7-01s-31 treatment also strongly promotes EGFR degradation, with approximately 60% reduction at 15 hours post EGF stimulation (as shown in FIGS. 9c & 9e).
as §1, with “Protein bands are visualized using ECL reagents. β-actin is used as the internal reference protein to control the loading amount of SDS-PAGE.” left out

EGFR = test: EGF-induced endolysosomal degradation of EGFR, Western blot; type: cell-based; details: SKBR3, 2 μM, 15 hours post EGF stimulation
Protocol: as §3
In some embodiments, the Beclin 1-targeting stapled peptide provided by the present disclosure can effectively promote endolysosomal trafficking. As a scaffolding member of the PI3KC3 complex, Beclin 1 is essential for multiple PI3KC3-dependent processes including autophagy, endolysosomal trafficking and phagocytosis. […]
Whole cell lysates are extracted using Laemmli sample buffer (62.5 mM Tris-HCl, pH 6.8, 2% SDS, 25% glycerol, 5% β-mercaptoethanol) supplemented with EDTA-free protease inhibitor cocktail (Roche). Protein concentration is determined using a standard Bradford assay before immunoblotting. […]

[5] = target: T1, Beclin 1 coiled coil domain (Homo sapiens, UniProt Q14457); test: Isothermal titration calorimetry (ITC) binding affinity; details: 25° C., pH 7.4, Tat-fused peptide, read-out: Kd
T1 construct: the coiled coil domain of human Beclin 1 (residues 176-268); thioredoxin-6xHis fusion tag with HRV 3C protease cleavage site; made in house; host or cells: Escherichia coli BL21(DE3)
T1 sequence (Q14457 176-268): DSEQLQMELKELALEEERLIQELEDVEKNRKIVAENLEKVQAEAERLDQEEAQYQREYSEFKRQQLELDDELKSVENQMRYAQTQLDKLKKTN
Protocol: The expression and purification of Beclin 1 coiled coil domain is performed as described previously. Briefly, the coiled coil domain of human Beclin 1 (residues 176-268) is cloned into the modified pET32a vector containing the human rhinovirus (HRV) 3C protease cleavage site and thioredoxin-6×His fusion tag. Recombinant protein for the Beclin1 coiled oil domain is expressed in Escherichia coli BL21(DE3) and purified by Ni^2+-NTA affinity chromatography (His Trap HP, GE Healthcare) first and followed by size-exclusion chromatography (Superdex 75, GE Healthcare).
ITC assays are carried out by MicroCal PEAQ-ITC Automated (Marvern) at 25° C. All designed peptides and purified protein for the Beclin 1 coiled coil domain are dialyzed into the buffer containing 50 mM Tris, 150 mM NaCl at pH 7.4. For each titration assay, the injection syringe is loaded with 40 μl of peptide and the cell is loaded with Beclin 1 coiled coil domain protein. Typically, titrations consist of 19 injections, and each injection is performed at a time interval of 180 seconds to ensure that the titration peak returns to the baseline. The titration data are analyzed using the MicroCal PEAQ-ITC Analysis software and fitted by the one-site binding model.

SKBR3 cells [6] = test: Five-day cell proliferation assay; type: cell-based; details: SKBR3, five days, 10 μM
Protocol: as §2

CC[C@H](C)[C@@H]1NC(=O)[C@H](C(C)C)NC(=O)[C@H](CC(=O)O)NC(=O)[C@H](C(C)C)NC(=O)[C@H](CC(C)C)NC(=O)[C@](C)(NC(=O)[C@H](CC(N)=O)NC(=O)[C@H](Cc2ccccc2)NC(=O)[C@H](CC(C)C)NC(=O)[C@@H](NC(=O)[C@H](CCCNC(=N)N)NC(=O)[C@H](CCCNC(=N)N)NC(=O)[C@H](CCCNC(=N)N)NC(=O)[C@H](CCC(N)=O)NC(=O)[C@H](CCCNC(=N)N)NC(=O)[C@H](CCCNC(=N)N)NC(=O)[C@H](CCCCN)NC(=O)[C@H](CCCCN)NC(=O)[C@H](CCCNC(=N)N)NC(=O)CNC(=O)[C@H](Cc2ccc(O)cc2)NC(C)=O)C(C)C)CCCCCCC=CCCC[C@@](C)(C(=O)N[C@@H](CCCNC(=N)N)C(=O)N[C@@H](CCCCN)C(=O)N[C@H](C(N)=O)C(C)C)NC(=O)[C@H](CCCCN)NC1=O [i7-01s-31] (Ac-YGRKKRRQRRRVLFN[R8]LVDVIK[S5]RKV-NH2; staple 16-23)
autophagy induction compared with Tat-SP4 (HEK293T cells [1]): comparable efficacy
LC3-II levels (HEK293T cells [1]; 10 and 20 μM, 3 hours, absence of CQ): noticeable albeit small increase
LC3-II levels (HEK293T cells [1]; 10 and 20 μM, 3 hours, presence of chloroquine (CQ)): significantly stronger
protein level of p62 (HEK293T cells [1]; 10 and 20 μM, 3 hours, presence or absence of CQ): does not show any noticeable change
IC50 (SKBR3 cells [2]): 7.12 µM
PI positive cells (SKBR3 cells [3]; SKBR3, 10 μM, 24 hours): approximately 30%
change of Annexin V positive cells (apoptosis) (SKBR3 cells [3]; SKBR3, 24 hours): without notable changes; also recorded: no increase
change of PI positive staining cells (dead cells) (SKBR3 cells [3]; SKBR3, 24 hours): significantly increased; also recorded: significant increase
cell viability (HEK293T cells [4]; 5 μM, 24 hours): little impact on cell viability
cytotoxicity (HEK293T cells [4]; 20 μM, 24 h): negligible cytotoxicity
decrease of HER2 level (HER2; 15 hours post EGF stimulation): about 50%
decrease of HER2 level (HER2; 24 hours post EGF stimulation): about 70%
reduction of EGFR (EGFR): approximately 60%
Kd [5]: 0.33 ± 0.28 µM
effect on cell proliferation (SKBR3 cells [6]): completely abolish cell proliferation
